Data reported in paper PMC3769965 (Biochemistry, 2013).

Target: Eis_Msm (Mycolicibacterium smegmatis, UniProt A0QY29)
Assay: DTNB initial rate
Format: biochemical
Conditions: AcCoA, 50 mM Tris-HCl pH 8.0

For `NC[C@@H]1O[C@H](O[C@H]2[C@@H](O)[C@H](O[C@@H]3[C@@H](O)[C@H](N)C[C@H](N)[C@H]3O[C@H]3O[C@H](CO)[C@@H](O)[C@H](O)[C@H]3N)O[C@@H]2CO)[C@H](N)[C@@H](O)[C@@H]1O` [PAR, paromomycin], the “DTNB initial rate (CoA release); LCMS of tri-acetylation” value was “with Eis_Mtb, Eis_Msm, and all Eis_Mtb-mutants, PAR was always tri-acetylated”.
